Assay results as given in PubChem BioAssay AID504702 (Southern Research Specialized Biocontainment Screening …, 2011).
“And” between values parts separate entries of the source, which are not always exact repeats. Equal values may be shown once. The source made the active and inactive calls. No rule for the calls is given here.

Experiments:
[1] = test system: M. tuberculosis H37Rv with meropenem, growth inhibition; assay: M. tuberculosis growth inhibition with meropenem, dose response, H37Rv, set 2 (AID 504702); conditions: for IC90: measured here: IC90 growth with meropenem;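 as to all read-outs here: growth read by Alamar Blue after 7 days plus overnight incubation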
[2] = as above; conditions: M. tuberculosis H37Rv with meropenem, growth inhibition; at 25 µM (top of the series)

| Compound | IC50 [1] | IC90 [1] [µM] | growth inhibition [2] |
| --- | --- | --- | --- |
| COc1cccc(NC(=O)C2CC2)c1 | 0.58 µM and 3.28 µM | > 25 |  |
| COc1ccc2c(c1)cc(C)n2-c1ccccc1 | 6.88 µM | > 25 |  |
| O=C(COc1cccc2ccccc12)Nc1nc2ccccc2s1 |  |  | -6.75% (inactive) |
| COc1ccccc1C(=O)N/C(N)=N/c1nc2ccccc2o1 |  |  | 0.18% (inactive) |
| O=C(CCS(=O)(=O)c1ccc(F)cc1)Nc1nnc(-c2cccs2)o1 | 22.4 µM | > 25 |  |
| Cc1ccc2oc(/N=C(\N)NC(=O)c3ccccc3)nc2c1 |  |  | 5.09% (inactive) |
| CCOc1ccc2c(ccn2-c2ccccc2)c1 |  |  | -1.15% (inactive) |
| O=C(O)CCC(=O)Nc1nc2ccccc2s1 |  |  | -2.73% (inactive) |
| CCOc1ccc2nc(NC(=O)COc3ccccc3)sc2c1 |  |  | -8.57% (inactive) |
| O=C(COc1ccc2ccccc2c1)Nc1nc2ccccc2[nH]1 | 8.87 µM | > 25 |  |
| Cc1cc2cc(F)ccc2n1-c1ccccc1 |  |  | 5.53% (inactive) |
| Cc1ccc(OC(C)C(=O)Nc2ncccn2)c(C)c1 (stereo unspecified) |  |  | 3.48% (inactive) |
| Cc1cccnc1NC(=S)NC(=O)c1cncc(Br)c1 | 2.71 µM | > 25 |  |
| CCOC(=O)c1cnc2cc(-c3ccc(C(C)(C)C)cc3)nn2c1N |  | > 25 |  |
| CCOc1ccc2[nH]cc(C(=O)OC)c2c1 |  | > 25 |  |
| CCc1ccc2nc(/N=C(\N)NC(=O)c3ccccc3)nc(C)c2c1 | 0.82 µM | > 25 |  |
| COc1ccc2nc(NC(=O)C(C)Oc3ccccc3)sc2c1 (stereo unspecified) |  |  | -2.23% (inactive) |
| Cc1cc2ccccc2[nH]1 |  |  | 0.33% (inactive) |
| Cc1ccc(OCC(=O)Nc2ccc(Cl)cc2)c(C)c1 |  |  | -3.91% (inactive) |
| CCOc1ccc2nc(NC(=O)C3(c4ccccc4)CCCC3)sc2c1 | 1.2 µM | 4.16 |  |
| Cc1cc2ccccc2n1-c1ccccc1 |  |  | -0.06% (inactive) |
| Cc1ccc(OCC(=O)Nc2ccc3c4c(cccc24)CC3)c(C)c1 | 0.91 µM and 6.11 µM | > 25 |  |
| Cc1cc(C)c(OCC(=O)Nc2nc3ccccc3s2)c(Cl)c1 |  |  | -6.55% (inactive) |
| CCOC(=O)COc1nc(-c2ccc(Cl)cc2)cc(-c2ccco2)c1C#N | 6.8 µM and 4.07 µM | > 25 |  |
| CCOc1ccc2c(c1)c(C(C)=O)c(C)n2-c1ccccc1Cl | 13.6 µM | > 25 |  |
| Cc1cc2cc(Cl)ccc2[nH]1 |  |  | 0.31% (inactive) |
| CC(=O)c1c(C)n(-c2ccc(C)cc2)c2ccc(O)cc12 |  |  | -1.38% (inactive) |
| COc1ccc(C(=O)Nc2ccc3nc(N4CCCCC4)cc(C)c3c2)c(OC)c1 | 17.6 µM | > 25 |  |

| Compound | IC50 [1] | IC90 [1] [µM] | growth inhibition [2] |
| --- | --- | --- | --- |
| O=C(COC(=O)C1CC1)c1c[nH]c2ccccc12 | 0.25 µM and 0.64 µM | > 25 |  |
| CCOc1ccc2nc(NC(=O)COc3ccc(OC)cc3)sc2c1 |  |  | -8.22% (inactive) |
| CC(=O)c1c(C)n(-c2ccccc2)c2ccc(OC(C)C)cc12 |  |  | 8.61% (inactive) |
| CC(=O)Nc1ccc2nc(NC(=O)Cc3ccccc3)sc2c1 |  |  | -7.72% (inactive) |
| Cc1ccc(OCC(=O)Nc2cccc3ccccc23)c(C)c1 | 20.5 µM | > 25 |  |
| Cc1ccccc1OCC(=O)Nc1ncccn1 |  |  | 3.04% (inactive) |
| Cc1cc2cc(Cl)ccc2n1-c1ccccc1 |  |  | 16.5% (inactive) |
| CCOc1ccc2nc(NC(=O)C(C)Oc3ccccc3F)sc2c1 (stereo unspecified) |  |  | 2.03% (inactive) |
| CCOc1ccc2nc(NC(=O)COc3ccc(Cl)c(C)c3)sc2c1 |  |  | -5.37% (inactive) |
| Cc1ccccc1OCC(=O)Nc1ncn[nH]1 |  |  | 0.97% (inactive) |
| CCOC(=O)c1c(C)[nH]c2ccccc12 |  |  | -5.69% (inactive) |
| Cc1ccccc1OCC(=O)Nc1nnn(C)n1 |  |  | 0.35% (inactive) |
| COc1ccc(Cl)cc1C(=O)Nc1nc2ccccc2[nH]1 | 16.2 µM | > 25 |  |
| O=C(COc1ccc(Cl)cc1)Nc1nc2ccc(F)cc2s1 |  |  | -1.17% (inactive) |
| COC(=O)c1c(C)[nH]c2ccc(Cl)cc12 |  |  | -8.83% (inactive) |
| COC(=O)c1sc(-c2ccc(C(C)(C)C)cc2)cc1NC(=O)CCC(=O)O | 3.46 µM and 7.32 µM | > 25 |  |
| O=C(Cc1csc(-c2ccccc2F)n1)Nc1nc2ccccc2[nH]1 |  |  | 1.69% (inactive) |
| Cc1cccc(C)c1OCC(=O)Nc1nc2ccccc2s1 |  |  | -9.19% (inactive) |
| Cc1ccc(OCC(=O)Nc2nnn(C)n2)c(C)c1 |  |  | -3.74% (inactive) |
| CC(=O)c1c(C)n(-c2cccc(Cl)c2)c2ccc(O)cc12 |  |  | -2.38% (inactive) |
| COc1ccc2nc(NC(=O)COc3ccccc3C(C)C)sc2c1 |  |  | -2.44% (inactive) |
| COC(=O)c1c(C)[nH]c2ccccc12 |  |  | -4.94% (inactive) |
| O=C(COc1ccccc1Cl)Nc1nc2ccccc2s1 |  |  | -4.37% (inactive) |
| COc1ccc2nc(NC(=O)COc3ccc(C)cc3)sc2c1 |  |  | -3.26% (inactive) |
| COC(=O)c1c(C)[nH]c2ccc(F)cc12 |  |  | -3.53% (inactive) |
| O=C(CSc1n[nH]c(=O)n1C1CC1)c1ccc2c(c1)OCCO2 | 4.57 µM | > 25 |  |
| CC(Oc1ccc(Cl)cc1)C(=O)Nc1nc2ccccc2s1 (stereo unspecified) |  |  | -2.09% (inactive) |
